{"source": "patent US8535617B2", "about": "“Blood cell barrier for a lateral flow device” (Kimberly-Clark Worldwide, Inc., priority 2007, dated 2013)", "key": {"fresh human blood [1]": {"system": "fresh human blood", "assay": "Blood separation on nitrocellulose lateral flow membrane strips with a linoleic acid line", "description": "(§1) A circle of Whatman filter paper (Qualitative 18.5 cm) was cut into strips (16 cm×2 cm). A thin line of linoleic acid was placed 8 cm from the bottom end of the strip using a syringe with needle, to lay down a thin line of liquid (approximately 5-10 μl). Next, a drop (20 μl) of fresh human blood was placed onto the strip 4 cm up from the bottom. A control strip was prepared in a similar manner except no linoleic acid was placed on the control strip. The strips were then attached to a glass rod, being 6 cm away from each other, using scotch tape. In a manner similar to paper chromatography, the strips were placed into a tall beaker (2 liter volume) containing deionized water (50 ml) in such a manner that the bottom end of the paper strips just entered the water. The water wicked up the vertically hanging strips.\nThe experiment described in Example 1 was repeated but using nitrocellulose lateral flow membrane strips (Bangs Laboratories Inc., Fishers Ind.) in place of the paper strips. The same procedure was conducted and at the end of the flow period (20 minutes) the strips were allowed to dry. […] In contrast, the control strip allowed the blood to travel up the entire length of the strip. […]"}, "fresh human blood [2]": {"system": "fresh human blood", "assay": "Blood separation on filter paper strips with a linoleic acid line, eluted with water", "conditions": "Whatman filter paper strip", "description": "as §1\nThe system was allowed to run for another 20 minutes after which time the strips were taken out and allowed to air dry. Both strips were then sprayed with a ninhydrin spray to detect amino acids. […] The control had traces present along the length and a strong presence where the blood spot had stopped."}}}
{"smiles": "CCCCCC=CCC=CCCCCCCCC(=O)O", "note": "[linoleic acid, 9,12-octadecadienoic acid]", "values": [{"measurement": "movement of blood spot on strip", "setting": "fresh human blood [1]; nitrocellulose lateral flow membrane strip, flow period 20 minutes", "result": "halted at the linoleic acid line"}, {"measurement": "phenolphthalin / 3% hydrogen peroxide spot test for dried blood and hemoglobin", "setting": "fresh human blood [1]; nitrocellulose strip, beyond the linoleic acid line, visual pink color", "result": "no pink color developed"}, {"measurement": "movement of blood spot on strip", "setting": "fresh human blood [2]; 20 μl blood, line of approximately 5-10 μl linoleic acid, eluted by deionized water", "result": "halt at the line where the linoleic acid had been placed"}, {"measurement": "ninhydrin spray detection of amino acids", "setting": "fresh human blood [2]; after air drying, visual purple color", "result": "presence of amino acids after the line"}]}
